# Laboratory results from US20190381017A1, “Compositions Comprising Serdexmethylphenidate Conjugates And Methods Of Use Thereof” (KemPharm, Inc., priority 2018, published 2019).
# “And” between values parts separate entries of the source, which are not always exact repeats. Identical values can stand only once. Counter-ions that a name gives are not always drawn.
# Experiments:
# [1] = tested on: healthy, nondependent, recreational stimulant users with intranasal insufflation experience; assay: Intranasal abuse potential, VAS pharmacodynamic scores (Example 5); assay type: in vivo, human
# Protocol: Subjects who successfully completed the Screening Period returned to the clinic to complete the Drug Discrimination Phase. The Drug Discrimination Test was performed to ensure that subjects can differentiate between the effects of a single dose of d-methylphenidate hydrochloride and placebo, administered intranasally. Subjects who successfully completed the Drug Discrimination Phase remained as inpatients to enter the Treatment Phase. The Drug Discrimination Phase was a double-blind, intranasal, single-dose, 2-treatment, 2-period, 2-sequence, randomized, crossover design.
# The placebo dose consisted of 80 mg of microcrystalline cellulose to create the same volume.
# On dosing days in the Treatment Phase, blood samples were collected for the measurement of the plasma concentrations of SDX, d-methylphenidate (d-MPH), l-methylphenidate (l-MPH) and ritalinic acid at predose and at 0.25, 0.5, 0.75, 1, 1.5, 2, 3, 4, 5, 6, 7, 8, 9, 10, 12, 16, 24, 36, and 48 hours±5 minutes after each dose of study drug. […] All VAS pharmacodynamic assessments except Take Drug Again and Overall Drug Liking were performed at 0.25, 0.5, 0.75, 1, 1.5, 2, 3, 4, 5, 6, 7, 8, 10, 12, 24 hours±5 minutes postdose. In addition, predose assessments of Feeling High, and Drowsiness/Alertness were collected. The Take Drug Again and Overall Drug Liking VAS assessments were performed at 12 and 24 hours±5 minutes postdose.
# [2] = tested on: healthy, nondependent, recreational stimulant users with intranasal insufflation experience; assay: Treatment-emergent adverse events, intranasal study (Example 5, Table 54)
# Protocol: The study consisted of a Screening Period, an in-clinic Drug Discrimination Phase, a Treatment Phase, and a Follow-Up Visit.
# All subjects were required to fast for at least 8 hours prior to each dose of study drug until approximately 4 hours after each dose. Abuse potential measures and pharmacokinetic samples were collected at different times after the administration of study drug. Subjects who successfully completed the Drug Discrimination Phase and who qualified for the Treatment Phase remained as inpatients to enter the Treatment Phase.
# [3] = SDX Cl 80 mg, d-MPH HCl 40 mg, 12 hours, bipolar VAS
# [4] = SDX Cl 80 mg, d-MPH HCl 40 mg, 24 hours, bipolar VAS
# [5] = SDX Cl 80 mg, d-MPH HCl 40 mg, bipolar VAS
# [6] = SDX Cl 80 mg, d-MPH HCl 40 mg, unipolar VAS
# [7] = d-MPH HCl 40 mg vs SDX Cl 80 mg
# [8] = d-MPH HCl 40 mg (N = 46), SDX Cl 80 mg (N = 46)
smiles,measurement,setting,value
"COC(=O)[C@H](c1ccccc1)[C@H]1CCCCN1 [d-methylphenidate hydrochloride, d-threo-methylphenidate hydrochloride]",Mean difference Any Effect Emax vs placebo,"[1]; SDX Cl 80 mg, d-MPH HCl 40 mg",88.6
same,Mean difference Ease of Nasal Insufflation Emax vs placebo,"[1]; SDX Cl 80 mg, d-MPH HCl 40 mg",11.3
same,Mean difference Feeling Drowsy/Alert Emax vs placebo,"[1]; SDX Cl 80 mg, d-MPH HCl 40 mg",42.3
same,Mean difference Feeling High Emax vs placebo,"[1]; SDX Cl 80 mg, d-MPH HCl 40 mg",85.2
same,Mean difference Good Effects Emax vs placebo,"[1]; SDX Cl 80 mg, d-MPH HCl 40 mg",90.0
same,"Mean difference Overall Drug Liking vs placebo, 24 hours","[1]; SDX Cl 80 mg, d-MPH HCl 40 mg",26.1
same,"Mean difference Take Drug Again vs placebo, 12 hours","[1]; SDX Cl 80 mg, d-MPH HCl 40 mg",29.1
same,"Mean difference Take Drug Again vs placebo, 24 hours","[1]; SDX Cl 80 mg, d-MPH HCl 40 mg",28.3
same,"Mean difference Take Drug Again vs placebo, Emax","[1]; SDX Cl 80 mg, d-MPH HCl 40 mg",31.1
same,Median difference Bad Effects Emax vs placebo,"[1]; SDX Cl 80 mg, d-MPH HCl 40 mg",10.5
same,Mean Overall Drug Liking,[1]; [3],79.6
same,Mean Take Drug Again,[1]; [3],78.2
same,Median Overall Drug Liking,[1]; [3],87
same,Median Take Drug Again,[1]; [3],91
same,Mean Overall Drug Liking,[1]; [4],76.3
same,Mean Take Drug Again,[1]; [4],77.4
same,Median Overall Drug Liking,[1]; [4],82
same,Median Take Drug Again,[1]; [4],94
same,Drug Liking Emax (median),[1]; [5],100
same,Feeling Drowsy/Alert Emax (mean),[1]; [5],93.4
same,Feeling Drowsy/Alert Emax (median),[1]; [5],100
same,Overall Drug Liking Emax (mean),[1]; [5],81.0
same,Overall Drug Liking Emax (median),[1]; [5],90
same,Take Drug Again Emax (mean),[1]; [5],80.3
same,Take Drug Again Emax (median),[1]; [5],95
same,Drug Liking Emax (mean),"[1]; SDX Cl 80 mg, d-MPH HCl 40 mg, bipolar VAS, hydrochloride",93 and 93.2
same,Any Effect Emax (mean),[1]; [6],89.2
same,Any Effect Emax (median),[1]; [6],100
same,Bad Effects Emax (mean),[1]; [6],18.6
same,Bad Effects Emax (median),[1]; [6],2
same,Ease of Nasal Insufflation (mean),[1]; [6],18.1
same,Ease of Nasal Insufflation (median),[1]; [6],7
same,Feeling High Emax (mean),[1]; [6],88.0
same,Feeling High Emax (median),[1]; [6],97
same,Good Effects Emax (mean),[1]; [6],90.6
same,Good Effects Emax (median),[1]; [6],97
same,Median difference Drug Liking Emax vs placebo,[1]; d-MPH HCl 40 mg,45
same,"Median difference Overall Drug Liking vs placebo, 12 hours",[1]; d-MPH HCl 40 mg,33.5
same,"Median difference Overall Drug Liking vs placebo, Emax",[1]; d-MPH HCl 40 mg,35
same,Mean difference Any Effect Emax,[1]; [7],39.8
same,Mean difference Drug Liking Emax,[1]; [7],22.3
same,Mean difference Ease of Nasal Insufflation Emax,[1]; [7],-47.7
same,Mean difference Feeling Drowsy/Alert Emax,[1]; [7],22.2
same,Mean difference Feeling High Emax,[1]; [7],44.5
same,Mean difference Good Effects Emax,[1]; [7],45.7
same,"Mean difference Overall Drug Liking, 12 hours",[1]; [7],19.2
same,"Mean difference Overall Drug Liking, 24 hours",[1]; [7],17.3
same,"Mean difference Overall Drug Liking, Emax",[1]; [7],19.3
same,"Mean difference Take Drug Again, 12 hours",[1]; [7],21.5
same,"Mean difference Take Drug Again, 24 hours",[1]; [7],21.5
same,"Mean difference Take Drug Again, Emax",[1]; [7],20.3
same,Median difference Bad Effects Emax,[1]; [7],0
same,TEAE: Abdominal distension,[2]; [8],0 n (%) [E]
same,TEAE: Agitation,[2]; [8],0 n (%) [E]
same,TEAE: Arthralgia,[2]; [8],0 n (%) [E]
same,TEAE: Catheter site haematoma,[2]; [8],0 n (%) [E]
same,TEAE: Catheter site swelling,[2]; [8],0 n (%) [E]
same,TEAE: Chest pain,[2]; [8],0 n (%) [E]
same,TEAE: Claustrophobia,[2]; [8],0 n (%) [E]
same,TEAE: Cough,[2]; [8],0 n (%) [E]
same,TEAE: Dizziness,[2]; [8],0 n (%) [E]
same,TEAE: Dysgeusia,[2]; [8],0 n (%) [E]
same,TEAE: Dyspepsia,[2]; [8],0 n (%) [E]
same,TEAE: Ecchymosis (skin discoloration),[2]; [8],0 n (%) [E]
same,TEAE: Epistaxis (nosebleed),[2]; [8],0 n (%) [E]
same,TEAE: Eye pain,[2]; [8],0 n (%) [E]
same,TEAE: Feeling of relaxation,[2]; [8],0 n (%) [E]
same,TEAE: Head discomfort,[2]; [8],0 n (%) [E]
same,TEAE: Infections and infestations,[2]; [8],0 n (%) [E]
same,TEAE: Irritability,[2]; [8],0 n (%) [E]
same,TEAE: Lacrimation increased,[2]; [8],0 n (%) [E]
same,TEAE: Nasal dryness,[2]; [8],0 n (%) [E]
same,TEAE: Pharyngitis,[2]; [8],0 n (%) [E]
same,TEAE: Phlebitis superficial,[2]; [8],0 n (%) [E]
same,TEAE: Pyrexia,[2]; [8],0 n (%) [E]
same,TEAE: Rhinorrhoea (runny nose),[2]; [8],0 n (%) [E]
same,TEAE: Sneezing,[2]; [8],0 n (%) [E]
same,TEAE: Upper-airway cough syndrome,[2]; [8],0 n (%) [E]
same,TEAE: Vomiting,[2]; [8],0 n (%) [E]
same,"typical stimulant-related adverse events (euphoric mood, hypervigilance, cardiac palpitations, tachycardia), frequency vs intranasal SDX Cl",[2]; [7],occurred more often
